pIC50: −log10 of the molar value. Read-outs that look alike come from different tables or passages of the source.
Columns and labels:
[1] = molecular target: human plasma kallikrein (Homo sapiens (Human), UniProt P03952); test: Kallikrein inhibition assay (FLINT) utilizing a quenched AMC peptide substrate; assay type: biochemical; conditions: 30 min preincubation, kinetic reads over 30 min, Z-Gly-Pro-Arg-AMC substrate 50 μM; read-out: Kallikrein Kin Inh IC50
How it was run: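 Fluorogenic Z-Gly-Pro-Arg-AMC cleavage (50 μM substrate, 2 nM kallikrein, Tris pH 7.5, CaCl2, BSA, CHAPS, 2% DMSO) read kinetically at 340/440 nm for 30 min after 30-min compound pre-incubation. Compounds in 11-point 3-fold series from 1 μM; percent inhibition fitted to four-parameter equation for IC50.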

[2] = molecular target: Factor XIa (Homo sapiens (Human), UniProt P03951); test: Factor XIa inhibition assay (FLINT) utilizing a fluorophore-quencher pair peptide substrate; assay type: biochemical; conditions: 30 min preincubation, kinetic reads over 30 min, read-out: FXIa Kin Inh IC50
How it was run: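 FXIa ([…]) preincubated 30 min with compound (11-point 3-fold dilution, top 100 nM, 2% DMSO), then 15 μM quenched FXI Arg146-based peptide added; Tris pH 7.5, CaCl2, BSA, CHAPS. Fluorescence 485/520 nm read kinetically every 5 min over 30 min at RT; IC50 by 4-parameter fit.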

[3] = 5Fam-KLTRAETV-K5Tamra substrate 15 μM
[4] = 5Fam-[…]-K5Tamra substrate 15 μM

Chain of Factor XIa (P03951 388-625): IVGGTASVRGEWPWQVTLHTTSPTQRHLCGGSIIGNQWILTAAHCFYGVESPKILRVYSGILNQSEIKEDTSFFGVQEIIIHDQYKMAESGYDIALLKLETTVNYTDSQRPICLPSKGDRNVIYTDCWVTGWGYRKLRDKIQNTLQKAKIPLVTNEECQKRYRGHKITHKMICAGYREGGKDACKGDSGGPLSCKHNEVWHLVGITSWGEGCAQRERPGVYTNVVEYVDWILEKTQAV
Chain of Factor XIa (P03951 19-387 partner): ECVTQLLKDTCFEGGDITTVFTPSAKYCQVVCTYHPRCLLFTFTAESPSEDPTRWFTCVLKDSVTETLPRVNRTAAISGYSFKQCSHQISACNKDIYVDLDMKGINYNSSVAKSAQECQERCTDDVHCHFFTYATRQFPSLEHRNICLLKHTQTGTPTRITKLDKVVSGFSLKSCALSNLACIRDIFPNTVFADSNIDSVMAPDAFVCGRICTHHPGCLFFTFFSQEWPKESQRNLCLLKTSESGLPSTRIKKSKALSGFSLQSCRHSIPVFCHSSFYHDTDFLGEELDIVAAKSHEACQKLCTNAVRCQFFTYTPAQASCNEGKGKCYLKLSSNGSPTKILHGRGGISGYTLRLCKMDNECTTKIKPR
Chain of human plasma kallikrein (P03952 391-638): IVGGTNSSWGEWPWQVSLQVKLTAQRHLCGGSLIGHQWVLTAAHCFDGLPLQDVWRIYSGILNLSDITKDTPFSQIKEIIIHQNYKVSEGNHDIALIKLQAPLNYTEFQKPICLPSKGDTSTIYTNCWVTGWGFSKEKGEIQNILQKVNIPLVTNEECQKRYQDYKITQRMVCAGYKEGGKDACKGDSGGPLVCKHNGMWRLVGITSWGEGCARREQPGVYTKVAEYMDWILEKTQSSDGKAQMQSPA
Chain of human plasma kallikrein (P03952 20-390 partner): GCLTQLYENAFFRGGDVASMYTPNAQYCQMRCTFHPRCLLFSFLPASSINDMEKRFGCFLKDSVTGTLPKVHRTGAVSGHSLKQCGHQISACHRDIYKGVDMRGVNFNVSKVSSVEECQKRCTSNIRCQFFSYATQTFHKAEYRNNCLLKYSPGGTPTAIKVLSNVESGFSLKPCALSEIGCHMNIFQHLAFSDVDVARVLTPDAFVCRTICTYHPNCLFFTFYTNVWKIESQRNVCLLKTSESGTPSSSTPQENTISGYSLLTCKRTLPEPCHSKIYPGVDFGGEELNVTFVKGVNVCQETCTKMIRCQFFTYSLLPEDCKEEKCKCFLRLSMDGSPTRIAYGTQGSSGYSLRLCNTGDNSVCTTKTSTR

SMILES | pIC50 [1] | pIC50 [2, 3] | pIC50 [2, 4]
O=C1C=C(c2c(-n3cnnn3)ccc(Cl)c2F)C[C@H]2CC[C@@H](c3nc(F)c(-c4ccnc(-c5ccn[nH]5)c4)[nH]3)N12 (single isomer, unassigned) [Example 31] | 8.74 | 9.15 | –
Cc1nc([C@@H]2CC[C@@H]3CC(c4c(-n5cnnn5)ccc(Cl)c4F)=CC(=O)N32)[nH]c1-c1ccnc(CO)c1F (single isomer, unassigned) [Example 35] | 6.61 | – | 7.22
[2H]C([2H])(O)c1nccc(-c2cnc([C@@H]3CC[C@]4([2H])CC(c5c(-n6cnnn6)ccc(Cl)c5F)=CC(=O)N34)[nH]2)c1F (single isomer, unassigned) [Example 36] | 7.47 | 8.29 | –
Nc1ccnn1-c1cc(-c2cnc([C@H]3CC[C@@H]4CC(c5c(-n6cnnn6)ccc(Cl)c5F)=CC(=O)N43)[nH]2)ccn1 (single isomer, unassigned) [Example 49, (3R*,8aR)-3-(5-(2-(5-amino-1H-pyrazol-1-yl)pyridin-4-yl)-1H-imidazol-2-yl)-7-(3-chloro-2-fluoro-6-(1H-tetrazol-1-yl)phenyl)-2,3,8,8a-tetrahydroindolizin-5(1H)-one] | 7.94 | – | 7.50
O=C(O)c1nccc(-c2cnc([C@@H]3CC[C@@H]4CC(c5cc(Cl)ccc5-n5cc(C(F)(F)F)nn5)=CC(=O)N43)[nH]2)c1F (single isomer, unassigned) [Example 54, 4-(2-((3S*,8aR)-7-(5-chloro-2-(4-(trifluoromethyl)-1H-1,2,3-triazol-1-yl)phenyl)-5-oxo-1,2,3,5,8,8a-hexahydroindolizin-3-yl)-1H-imidazol-5-yl)-3-fluoropicolinic acid] | 7.17 | – | 9.10
Nc1ccn(-c2nccc(-c3cnc([C@H]4CC[C@@H]5CC(c6c(-n7cnnn7)ccc(Cl)c6F)=CC(=O)N54)[nH]3)c2F)n1 (single isomer, unassigned) [Example 63] | 8.21 | – | 8.16
O=C1C=C(c2c(-n3cnnn3)ccc(Cl)c2F)CC2CCC(c3nc(-c4cccc(-c5ccn[nH]5)n4)c(F)[nH]3)N12 (single isomer, unassigned) [Example 66, (3S*)-3-(4-(6-(1H-pyrazol-5-yl)pyridin-2-yl)-5-fluoro-1H-imidazol-2-yl)-7-(3-chloro-2-fluoro-6-(1H-tetrazol-1-yl)phenyl)-2,3,8,8a-tetrahydroindolizin-5(1H)-one] | 7.59 | – | 7.26
Nc1nccc(-c2[nH]c([C@@H]3CC[C@@H]4CC(c5cc(Cl)ccc5-n5cnnn5)=CC(=O)N43)nc2F)c1F (single isomer, unassigned) [Example 70, (3S*,8aR)-3-(5-(2-amino-3-fluoropyridin-4-yl)-4-fluoro-1H-imidazol-2-yl)-7-(5-chloro-2-(1H-tetrazol-1-yl)phenyl)-2,3,8,8a-tetrahydroindolizin-5(1H)-one] | 8.59 | – | 9.52
O=C1C=C(c2c(-n3cnnn3)ccc(Cl)c2F)C[C@H]2CC[C@H](c3ncc(-c4ccnc(-n5ccnn5)c4F)[nH]3)N12 (single isomer, unassigned) [Example 71, (3R*,8aR)-7-(3-chloro-2-fluoro-6-(1H-tetrazol-1-yl)phenyl)-3-(5-(3-fluoro-2-(1H-1,2,3-triazol-1-yl)pyridin-4-yl)-1H-imidazol-2-yl)-2,3,8,8a-tetrahydroindolizin-5(1H)-one] | 7.71 | – | 7.86
Nc1ccn(-c2cc(-c3cnc([C@H]4CC[C@@H]5CC(c6c(-n7cnnn7)ccc(Cl)c6F)=CC(=O)N54)[nH]3)ccn2)n1 (single isomer, unassigned) [Example 72, (3R*,8aR)-3-(5-(2-(3-amino-1H-pyrazol-1-yl)pyridin-4-yl)-1H-imidazol-2-yl)-7-(3-chloro-2-fluoro-6-(1H-tetrazol-1-yl)phenyl)-2,3,8,8a-tetrahydroindolizin-5(1H)-one] | 8.64 | – | 8.19
O=C1C=C(c2c(-n3cnnn3)ccc(Cl)c2F)C[C@H]2CC[C@@H](c3ncc(-c4ccnc(N[C@H]5CCOC5)c4F)[nH]3)N12 (single isomer, unassigned) [Example 73, (3S,8aR*)-7-(3-chloro-2-fluoro-6-(1H-tetrazol-1-yl)phenyl)-3-(5-(3-fluoro-2-(((S)-tetrahydrofuran-3-yl)amino)pyridin-4-yl)-1H-imidazol-2-yl)-2,3,8,8a-tetrahydroindolizin-5(1H)-one] | 8.57 | – | 9.22
O=C1C=C(c2c(-n3cnnn3)ccc(Cl)c2F)C[C@@H]2CC[C@@H](c3ncc(-c4ccnc(N[C@H]5CCOC5)c4F)[nH]3)N12 (single isomer, unassigned) [Example 74, (3S,8aS*)-7-(3-chloro-2-fluoro-6-(1H-tetrazol-1-yl)phenyl)-3-(5-(3-fluoro-2-(((S)-tetrahydrofuran-3-yl)amino)pyridin-4-yl)-1H-imidazol-2-yl)-2,3,8,8a-tetrahydroindolizin-5(1H)-one] | 8.31 | – | 8.59
Nc1nccc(-c2cnc([C@@H]3CC[C@@H]4CC(c5cc(Cl)ccc5-n5cnnn5)=CC(=O)N43)[nH]2)c1F (single isomer, unassigned) [Example 90, (3S*,8aR)-3-(5-(2-amino-3-fluoropyridin-4-yl)-1H-imidazol-2-yl)-7-(5-chloro-2-(1H-tetrazol-1-yl)phenyl)-2,3,8,8a-tetrahydroindolizin-5(1H)-one] | 8.26 | – | 9.30
O=C1C=C(c2c(-n3cnnn3)ccc(Cl)c2F)C[C@H]2CC[C@H](c3nc(F)c(-c4ccnc(-n5cncn5)c4F)[nH]3)N12 (single isomer, unassigned) [Example 92, 7-[3-Chloro-2-fluoro-6-(tetrazol-1-yl)phenyl]-3-[4-fluoro-5-[3-fluoro-2-(1,2,4-triazol-1-yl)-4-pyridyl]-1H-imidazol-2-yl]-2,3,8,8a-tetrahydro-1H-indolizin-5-one] | 8.22 | 8.43 | –
CNc1ccc(-c2cnc([C@@H]3CC[C@@H]4CC(c5cc(Cl)ccc5-n5cnnn5)=CC(=O)N43)[nH]2)c(F)n1 (single isomer, unassigned) [Example 98, (3S*,8aR)-7-(5-chloro-2-(1H-tetrazol-1-yl)phenyl)-3-(5-(2-fluoro-6-(methylamino)pyridin-3-yl)-1H-imidazol-2-yl)-2,3,8,8a-tetrahydroindolizin-5(1H)-one] | 8.05 | – | 9.22
N#CC1CN(c2nccc(-c3cnc([C@@H]4CC[C@@H]5CC(c6c(-n7cnnn7)ccc(Cl)c6F)=CC(=O)N54)[nH]3)c2F)C1 (single isomer, unassigned) [Example 100, 1-(4-(2-((3S*,8aR)-7-(3-chloro-2-fluoro-6-(1H-tetrazol-1-yl)phenyl)-5-oxo-1,2,3,5,8,8a-hexahydroindolizin-3-yl)-1H-imidazol-5-yl)-3-fluoropyridin-2-yl)azetidine-3-carbonitrile] | 8.29 | – | 8.72
N#CC1CN(c2nccc(-c3cnc([C@H]4CC[C@@H]5CC(c6c(-n7cnnn7)ccc(Cl)c6F)=CC(=O)N54)[nH]3)c2F)C1 (single isomer, unassigned) [Example 102, 1-(4-(24(3R*,8aR)-7-(3-chloro-2-fluoro-6-(1H-tetrazol-1-yl)phenyl)-5-oxo-1,2,3,5,8,8a-hexahydroindolizin-3-yl)-1H-imidazol-5-yl)-3-fluoropyridin-2-yl)azetidine-3-carbonitrile] | 8.02 | – | 7.99
O=C1C=C(c2c(-n3cnnn3)ccc(Cl)c2F)C[C@H]2CC[C@@H](c3ncc(-c4ccnc(N5CC6(COC6)C5)c4F)[nH]3)N12 (single isomer, unassigned) [Example 108, (3S*,8aR)-7-(3-chloro-2-fluoro-6-(1H-tetrazol-1-yl)phenyl)-3-(5-(3-fluoro-2-(2-oxa-6-azaspiro[3.3]heptan-6-yl)pyridin-4-yl)-1H-imidazol-2-yl)-2,3,8,8a-tetrahydroindolizin-5(1H)-one] | 8.24 | – | 8.54
O=C1C=C(c2c(-n3cnnn3)ccc(Cl)c2F)C[C@H]2CC[C@H](c3nc(F)c(-c4ccnc(C5(O)CC5)c4F)[nH]3)N12 (single isomer, unassigned) [Example 109] | 7.45 | 8.32 | –
O=C1C=C(c2c(-n3cnnn3)ccc(Cl)c2F)C[C@H]2CC[C@H](c3ncc(-c4ccnc(N5CCC5)c4F)[nH]3)N12 (single isomer, unassigned) [Example 110, (3*R,8aR)-3-(5-(2-(azetidin-1-yl)-3-fluoropyridin-4-yl)-1H-imidazol-2-yl)-7-(3-chloro-2-fluoro-6-(1H-tetrazol-1-yl)phenyl)-2,3,8,8a-tetrahydroindolizin-5(1H)-one] | 8.16 | – | 7.96
O=C1C=C(c2c(-n3cnnn3)ccc(Cl)c2F)C[C@H]2CC[C@@H](c3ncc(-c4ccnc(N5CCC5)c4F)[nH]3)N12 (single isomer, unassigned) [Example 111, (3*S,8aR)-3-(5-(2-(azetidin-1-yl)-3-fluoropyridin-4-yl)-1H-imidazol-2-yl)-7-(3-chloro-2-fluoro-6-(1H-tetrazol-1-yl)phenyl)-2,3,8,8a-tetrahydroindolizin-5(1H)-one] | 8.42 | 8.54 | –

Reference: patent US20230295157A1, “3-(1H-IMIDAZOL-2-YL)-2,3,8,8A-TETRAHYDROINDOLIZIN-5(1H)-ONE DERIVATIVES USEFUL AS FACTOR XIA INHIBITORS” (JANSSEN PHARMACEUTICA NV, priority 2020, published 2023)
